This note sets out measurements from patent US20240425479A1, “HALO-SUBSTITUTED AMINO AZA-HETEROARYL COMPOUNDS AS INHIBITORS OF THE HAEMATOPOIETIC PROGENITOR KINASE 1 (HPK1)” (priority 2021, published 2024).

Where only a bound is given, the exact number is not on record here.

As a reminder, the IC50 is the concentration at which inhibition is half-maximal.

Assay [1] concerns the target T1, Recombinant (1-346) HPK1 (h) (Homo sapiens, UniProt Q92918).
T1 construct: Recombinant (1-346) HPK1 (h) is incubated with 8 mM MOPS pH 7.0
T1 sequence (Q92918 1-346): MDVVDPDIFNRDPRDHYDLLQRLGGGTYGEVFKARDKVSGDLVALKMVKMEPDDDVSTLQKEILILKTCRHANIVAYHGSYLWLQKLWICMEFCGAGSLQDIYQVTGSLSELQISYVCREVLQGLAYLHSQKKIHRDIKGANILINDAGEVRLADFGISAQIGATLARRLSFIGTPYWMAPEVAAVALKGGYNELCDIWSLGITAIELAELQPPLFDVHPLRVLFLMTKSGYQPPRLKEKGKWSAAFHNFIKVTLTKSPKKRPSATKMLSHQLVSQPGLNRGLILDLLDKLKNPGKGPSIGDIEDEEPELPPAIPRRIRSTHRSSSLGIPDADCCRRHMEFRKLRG
Briefly: HPK1 human STE kinase enzymatic radiometric assay. As to conditions: read-out: HPK1 IC50 nM Range. Type of assay: biochemical. Put shortly:
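Compounds in 3-fold, 9-point serial dilution; kinase (residues 1-346) phosphorylates myelin basic protein (0.33 mg/mL) using [gamma-33P]-ATP at pH 7.0 (MOPS, EDTA, Mg acetate) for 40 min, room temperature. Acid-quenched mixture filtered onto P30 mats; incorporated radioactivity read by scintillation counting.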

For the next assay, the target named is Lck (h) (Homo sapiens, UniProt P06239). Briefly: Lck human STE kinase enzymatic radiometric assay. Type of assay: biochemical. The settings on record: read-out: Lck IC50 nM Range.
Chain of Lck (h) (P06239 whole entry): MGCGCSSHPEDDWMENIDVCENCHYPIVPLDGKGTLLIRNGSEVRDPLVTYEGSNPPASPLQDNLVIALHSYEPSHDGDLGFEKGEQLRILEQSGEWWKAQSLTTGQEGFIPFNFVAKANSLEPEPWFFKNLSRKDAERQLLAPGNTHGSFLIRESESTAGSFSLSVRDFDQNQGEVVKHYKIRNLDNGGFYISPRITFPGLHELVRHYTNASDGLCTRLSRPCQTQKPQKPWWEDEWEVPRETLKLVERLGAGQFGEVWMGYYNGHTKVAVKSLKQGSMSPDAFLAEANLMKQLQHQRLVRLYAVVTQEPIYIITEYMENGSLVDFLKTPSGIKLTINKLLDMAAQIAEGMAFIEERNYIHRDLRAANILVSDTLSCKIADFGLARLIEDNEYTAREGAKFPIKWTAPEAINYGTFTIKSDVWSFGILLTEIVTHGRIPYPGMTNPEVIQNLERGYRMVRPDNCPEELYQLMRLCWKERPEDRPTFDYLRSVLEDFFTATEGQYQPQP

On to `CC(C)N1CC=C(c2ccc(-c3nc(-c4cc5c(cc4F)C(=O)NCC5)c(N)nc3F)cc2)CC1` [Example I-9, 6-(3-amino-5-fluoro-6-(4-(1-isopropyl-1,2,3,6-tetrahydropyridin-4-yl)phenyl)pyrazin-2-yl)-7-fluoro-3,4-dihydroisoquinolin-1(2H)-one], for which the IC50 in assay [1] lay within 0.1 to 10 nM; on Lck (h), 101 to 1000 nM.

For `CC(C)N1CCN(c2ccc(-c3nc(-c4ccc5c(=O)[nH]cc(F)c5c4)c(N)nc3F)cc2)CC1` [Example I-66, 6-(3-amino-5-fluoro-6-(4-(4-isopropylpiperazin-1-yl)phenyl)pyrazin-2-yl)-4-fluoroisoquinolin-1(2H)-one], the half-inhibitory concentration (IC50) was 0.1 to 10 nM in assay [1] and over 1000 nM on Lck (h).

Consider `COc1ccc(-c2nc(-c3ccc4c(=O)[nH]cc(F)c4c3)c(N)nc2F)cc1CN(C)C` [Example I-267, 6-(3-amino-6-(3-((dimethylamino)methyl)-4-methoxyphenyl)-5-fluoropyrazin-2-yl)-4-fluoroisoquinolin-1(2H)-one], for which the IC50 in assay [1] is 0.1 to 10 nM; on Lck (h) it was over 1000 nM.

Turning to `CC(C)N1CCN(c2ccc(-c3nc(-c4cc(F)c5c(c4)CCNC5=O)c(N)nc3F)cc2)CC1` [Example I-14, 6-(3-amino-5-fluoro-6-(4-(4-isopropylpiperazin-1-yl)phenyl)pyrazin-2-yl)-8-fluoro-3,4-dihydroisoquinolin-1(2H)-one], the IC50 in assay [1] fell in the range of 0.1 to 10 nM; at Lck (h) it was 101 to 1000 nM.

Regarding `Nc1nc(F)c(-c2ccc(N3CCN(C4CCC4)CC3)cc2)nc1-c1cc2c(cc1F)C(=O)NCC2` [Example I-48, 6-(3-amino-6-(4-(4-cyclobutylpiperazin-1-yl)phenyl)-5-fluoropyrazin-2-yl)-7-fluoro-3,4-dihydroisoquinolin-1(2H)-one], the IC50 is 0.1 to 10 nM in assay [1] and over 1000 nM at Lck (h).

`CNCC1Cc2cc(-c3nc(-c4ccc(N5CCN(C(C)C)CC5)cc4)c(F)nc3N)ccc2C(=O)N1` (centres unmarked) [Example I-11, 6-(3-amino-5-fluoro-6-(4-(4-isopropylpiperazin-1-yl)phenyl)pyrazin-2-yl)-3-((methylamino)methyl)-3,4-dihydroisoquinolin-1(2H)-one]: the IC50 was 0.1 to 10 nM in assay [1] and over 1000 nM on Lck (h).

On to `CN(C)Cc1cc(-c2nc(-c3ccc4c(=O)[nH]cc(Cl)c4c3)c(N)nc2F)ccc1C1CCOCC1` [Example I-154, 6-(3-amino-6-(3-((dimethylamino)methyl)-4-(tetrahydro-2H-pyran-4-yl)phenyl)-5-fluoropyrazin-2-yl)-4-chloroisoquinolin-1(2H)-one], for which the IC50 in assay [1] was 0.1 to 10 nM; at Lck (h), over 1000 nM.

`CC(C)S(=O)(=O)c1ccc(-c2nc(-c3ccc4c(=O)[nH]cc(F)c4c3)c(N)nc2F)cc1CN(C)C` [Example I-293, 6-(3-amino-6-(3-((dimethylamino)methyl)-4-(isopropylsulfonyl)phenyl)-5-fluoropyrazin-2-yl)-4-fluoroisoquinolin-1(2H)-one]: the values for the IC50 (in assay [1]; at Lck (h)) were 11 to 100 nM and over 1000 nM, respectively.

As to `CN(C)Cc1cc(-c2nc(-c3ccc4c(c3)C3(CC3)CNC4=O)c(N)nc2F)ccc1C1CCOCC1` [Example I-110, 6′-(3-amino-6-(3-((dimethylamino)methyl)-4-(tetrahydro-2H-pyran-4-yl)phenyl)-5-fluoropyrazin-2-yl)-2′,3′-dihydro-1′H-spiro[cyclopropane-1,4′-isoquinolin]-1′-one], the IC50 in assay [1] is 0.1 to 10 nM; at Lck (h), 101 to 1000 nM.

For `Nc1nc(F)c(-c2ccc(C3CCOCC3)c(CN3CCC3)c2)nc1-c1cc2c(cc1F)C(=O)NCC2` [Example I-170, 6-(3-amino-6-(3-(azetidin-1-ylmethyl)-4-(tetrahydro-2H-pyran-4-yl)phenyl)-5-fluoropyrazin-2-yl)-7-fluoro-3,4-dihydroisoquinolin-1(2H)-one], the IC50 in assay [1] was 0.1 to 10 nM; at Lck (h) it was over 1000 nM.
